Data as given in ChEMBL document CHEMBL3390836, “Mannich- and LedererManasse-based analogues of the natural product S-(+)-curcuphenol as cancer proliferation and migration inhibitors” (Medchemcomm, 2012).

Assays:
SK-MEL-28 = assay: Cytotoxicity against human SK-MEL-28 cells assessed as cell growth at 10 uM after 48 hrs by SRB assay relative to control; assay type: functional; settings: SK-MEL-28, 48 h, read-out: Activity
HCC 2998 = assay: Cytotoxicity against human HCC2998 cells assessed as cell growth at 10 uM after 48 hrs by SRB assay relative to control; assay type: functional; settings: HCC 2998, 48 h, read-out: Activity
[1] = Cytotoxicity against human OVCAR5 cells assessed as cell growth at 10 uM after 48 hrs by SRB assay relative to control; assay type: functional; settings: OVCAR-5, 48 h, read-out: Activity
[2] = Cytotoxicity against human EKVX cells assessed as cell growth at 10 uM after 48 hrs by SRB assay relative to control; assay type: functional; settings: read-out: Activity
IGROV-1 = assay: Cytotoxicity against human IGROV1 cells assessed as cell growth at 10 uM after 48 hrs by SRB assay relative to control; assay type: functional; settings: IGROV-1, 48 h, read-out: Activity
[3] = Cytotoxicity against human Hs 578T cells assessed as cell growth at 10 uM after 48 hrs by SRB assay relative to control; assay type: functional; settings: read-out: Activity
[4] = Cytotoxicity against human OVCAR4 cells assessed as cell growth at 10 uM after 48 hrs by SRB assay relative to control; assay type: functional; settings: OVCAR-4, 48 h, read-out: Activity
TK-10 = assay: Cytotoxicity against human TK10 cells assessed as cell growth at 10 uM after 48 hrs by SRB assay relative to control; assay type: functional; settings: TK-10, 48 h, read-out: Activity
T47D = assay: Cytotoxicity against human T47D cells assessed as cell growth at 10 uM after 48 hrs by SRB assay relative to control; assay type: functional; settings: read-out: Activity
[5] = Cytotoxicity against human OVCAR3 cells assessed as cell growth at 10 uM after 48 hrs by SRB assay relative to control; assay type: functional; settings: OVCAR-3, 48 h, read-out: Activity
SF-295 = assay: Cytotoxicity against human SF295 cells assessed as cell growth at 10 uM after 48 hrs by SRB assay relative to control; assay type: functional; settings: SF-295, 48 h, read-out: Activity
ACHN = assay: Cytotoxicity against human ACHN cells assessed as cell growth at 10 uM after 48 hrs by SRB assay relative to control; assay type: functional; settings: read-out: Activity
MCF7 [6] = assay: Cytotoxicity against human MCF7 cells assessed as cell growth at 10 uM after 48 hrs by SRB assay relative to control; assay type: functional; settings: MCF7, 48 h, read-out: Activity
RXF 393 = assay: Cytotoxicity against human RXF393 cells assessed as cell growth at 10 uM after 48 hrs by SRB assay relative to control; assay type: functional; settings: RXF 393, 48 h, read-out: Activity
MCF7 [7] = assay: Growth inhibition of human MCF7 cells after 72 hrs by MTT assay; assay type: functional, cell-based; settings: MCF7, 72 h
HOP-62 = assay: Cytotoxicity against human HOP62 cells assessed as cell growth at 10 uM after 48 hrs by SRB assay relative to control; assay type: functional; settings: HOP-62, 48 h, read-out: Activity
SF-539 = assay: Cytotoxicity against human SF539 cells assessed as cell growth at 10 uM after 48 hrs by SRB assay relative to control; assay type: functional; settings: SF-539, 48 h, read-out: Activity
[8] = Cytotoxicity against human UO31 cells assessed as cell growth at 10 uM after 48 hrs by SRB assay relative to control; assay type: functional; settings: UO-31, 48 h, read-out: Activity
HT-29 = assay: Cytotoxicity against human HT-29 cells assessed as cell growth at 10 uM after 48 hrs by SRB assay relative to control; assay type: functional; settings: HT-29, 48 h, read-out: Activity
SN12C = assay: Cytotoxicity against human SN12C cells assessed as cell growth at 10 uM after 48 hrs by SRB assay relative to control; assay type: functional; settings: read-out: Activity
NCI-H226 = assay: Cytotoxicity against human NCI-H226 cells assessed as cell growth at 10 uM after 48 hrs by SRB assay relative to control; assay type: functional; settings: NCI-H226, 48 h, read-out: Activity
COLO 205 = assay: Cytotoxicity against human COLO205 cells assessed as cell growth at 10 uM after 48 hrs by SRB assay relative to control; assay type: functional; settings: COLO 205, 48 h, read-out: Activity
[9] = Cytotoxicity against human HCT15 cells assessed as cell growth at 10 uM after 48 hrs by SRB assay relative to control; assay type: functional; settings: HCT-15, 48 h, read-out: Activity
786-0 = assay: Cytotoxicity against human 786-0 cells assessed as cell growth at 10 uM after 48 hrs by SRB assay relative to control; assay type: functional; settings: 786-0, 48 h, read-out: Activity
MDA-MB-231 [10] = assay: Cytotoxicity against human MDA-MB-231 cells assessed as growth inhibition after 24 hrs by MTT assay; assay type: cell-based; settings: MDA-MB-231, 24 h
[11] = Cytotoxicity against human OVCAR8 cells assessed as cell growth at 10 uM after 48 hrs by SRB assay relative to control; assay type: functional; settings: OVCAR-8, 48 h, read-out: Activity
[12] = Cytotoxicity against human HCT116 cells assessed as cell growth at 10 uM after 48 hrs by SRB assay relative to control; assay type: functional; settings: HCT-116, 48 h, read-out: Activity
RPMI-8226 = assay: Cytotoxicity against human RPMI8226 cells assessed as cell growth at 10 uM after 48 hrs by SRB assay relative to control; assay type: functional; settings: RPMI-8226, 48 h, read-out: Activity
[13] = Cytotoxicity against human UACC62 cells assessed as cell growth at 10 uM after 48 hrs by SRB assay relative to control; assay type: functional; settings: UACC-62, 48 h, read-out: Activity
NCI-H460 = assay: Cytotoxicity against human NCI-H460 cells assessed as cell growth at 10 uM after 48 hrs by SRB assay relative to control; assay type: functional; settings: NCI-H460, 48 h, read-out: Activity
NCI-H23 = assay: Cytotoxicity against human NCI-H23 cells assessed as cell growth at 10 uM after 48 hrs by SRB assay relative to control; assay type: functional; settings: NCI-H23, 48 h, read-out: Activity
SW-620 = assay: Cytotoxicity against human SW620 cells assessed as cell growth at 10 uM after 48 hrs by SRB assay relative to control; assay type: functional; settings: SW-620, 48 h, read-out: Activity
[14] = Cytotoxicity against human NCI-ADR-RES cells assessed as cell growth at 10 uM after 48 hrs by SRB assay relative to control; assay type: functional; settings: read-out: Activity
MDA-MB-231 [15] = assay: Cytotoxicity against human MDA-MB-231 cells assessed as cell growth at 10 uM after 48 hrs by SRB assay relative to control; assay type: functional; settings: MDA-MB-231, 48 h, read-out: Activity
MOLT-4 = assay: Cytotoxicity against human MOLT4 cells assessed as cell growth at 10 uM after 48 hrs by SRB assay relative to control; assay type: functional; settings: MOLT-4, 48 h, read-out: Activity
SK-MEL-2 = assay: Cytotoxicity against human SK-MEL-2 cells assessed as cell growth at 10 uM after 48 hrs by SRB assay relative to control; assay type: functional; settings: SK-MEL-2, 48 h, read-out: Activity

Row | Compound | growth at 10 µM (SK-MEL-28) | growth at 10 µM (HCC 2998) | growth at 10 µM [1] | growth at 10 µM [2] | growth at 10 µM (IGROV-1) | growth at 10 µM [3] | growth at 10 µM [4] | growth at 10 µM (TK-10) | growth at 10 µM (T47D) | growth at 10 µM [5] | growth at 10 µM (SF-295) | growth at 10 µM (ACHN) | growth at 10 µM (MCF7 [6]) | growth at 10 µM (RXF 393) | IC50 (MCF7 [7]) | growth at 10 µM (HOP-62) | growth at 10 µM (SF-539) | growth at 10 µM [8] | growth at 10 µM (HT-29) | growth at 10 µM (SN12C) | other results
1 | COc1ccc(CCN2COc3c([C@@H](C)CCC=C(C)C)ccc(C)c3C2)cc1OC | -44% | -99% | 47% | 33% | -44% | 21% | 11% | -26% | -64% | 16% | -18% | 41% | 4% | -35% | 6.7 µM | -76% | 25% | 10% | -29% | 15% | growth at 10 µM (NCI-H226): 47%; growth at 10 µM (COLO 205): -99%; growth at 10 µM [9]: 2%; growth at 10 µM (786-0): -59%; IC50 (MDA-MB-231 [10]): > 20 µM; growth at 10 µM [11]: 24%; growth at 10 µM [12]: -43%; growth at 10 µM (RPMI-8226): -10%; growth at 10 µM [13]: 19%; growth at 10 µM (NCI-H460): -58%; growth at 10 µM (NCI-H23): -29%; growth at 10 µM (SW-620): -59%; growth at 10 µM [14]: -2%; growth at 10 µM (MDA-MB-231 [15]): -3%; growth at 10 µM (MOLT-4): 23%; growth at 10 µM (SK-MEL-2): -68%
2 | CC(C)=CCC[C@H](C)c1ccc(C)c2c1OCN(CC1CCNCC1)C2 | 86% | -82.1% | 76% | 81% | 78.7% | 64.3% | 86% | 75% | -94.4% | 77.2% | 80% | 64% | 36% | 55.2% | 8.1 µM | 80% | 73% | 60.5% | -68.5% | 47% | growth at 10 µM (NCI-H226): 94%; growth at 10 µM (COLO 205): 75.9%; growth at 10 µM [9]: 39.8%; growth at 10 µM (786-0): -60.1%; IC50 (MDA-MB-231 [10]): > 20 µM; growth at 10 µM [11]: 75.3%; growth at 10 µM [12]: -37.2%; growth at 10 µM (RPMI-8226): 23.7%; growth at 10 µM [13]: 63.5%; growth at 10 µM (NCI-H460): 24.6%; growth at 10 µM (NCI-H23): 79%; growth at 10 µM (SW-620): 28%; growth at 10 µM [14]: 83.5%; growth at 10 µM (MDA-MB-231 [15]): 64%; growth at 10 µM (MOLT-4): 34.1%; growth at 10 µM (SK-MEL-2): 95%
3 | CC(C)=CCC[C@H](C)c1ccc(C)c(CNCC2CCNCC2)c1O | 91% | -3.94% | 82% | 67% | 83.4% | 71% | 88% | 89.4% | 88% | 83% | 67% | 81% | 78.2% | 65% | > 20 µM | 84% | 84% | 64.3% | 8.29% | 78% | growth at 10 µM (NCI-H226): 72%; growth at 10 µM (COLO 205): -59%; growth at 10 µM [9]: 79%; growth at 10 µM (786-0): 81.2%; IC50 (MDA-MB-231 [10]): > 20 µM; growth at 10 µM [11]: 85%; growth at 10 µM [12]: 63%; growth at 10 µM (RPMI-8226): 61.7%; growth at 10 µM [13]: 13.2%; growth at 10 µM (NCI-H460): 54.7%; growth at 10 µM (NCI-H23): 84%; growth at 10 µM (SW-620): 86%; growth at 10 µM [14]: 84%; growth at 10 µM (MDA-MB-231 [15]): 69%; growth at 10 µM (MOLT-4): 77%; growth at 10 µM (SK-MEL-2): 102%
